Data as given in patent publication US7521478B2, “Total synthesis of myriaporones” (Pharma Mar, S.A.U., priority 2002, dated 2009).
Like-named read-outs stand apart in the source and are kept apart here.

Tests used:
Format in all cases: cell-based
HeLa = test: Inhibition of cell growth by colorimetric SRB assay, HELA; conditions: Homo sapiens, HELA, 48 hours exposure; for CC50: cell killing, read-out: LC50 (the source's name); for IC (total growth inhibition): read-out: TGI
Text: (§1) The finality of these assays is to interrupt the growth of a “in vitro” tumor cell culture by means a continued exhibition of the cells to the sample to be testing.
(§2) Inhibition of Cell Growth by Colorimetric Assay.
(§3) A colorimetric type of assay, using sulforhodamine B (SRB) reaction has been adapted for a quantitative measurement of cell growth and viability (following the technique described by P. A. Skehan, et al., J. Natl. CancerInst. 1990, 82, 1107-1112).
(§4) This form of assay employs 96 well cell culture microplates of 9 mm diameter (T. Mosmann et al., J. of Immuological Methods 1983, 65, 55-63; G. T. Faircloth et al., J. of Tissue and Culture Methods 1988, 11, 201-205). Most of the cell lines are obtained from American Type Culture Collection (ATCC) derived from different human cancer types.
(§5) Cells are maintained in RPMI 1640 10% FBS, supplemented with 0.1 g/L penicillin and 0.1 g/L streptomycin sulfate and then incubated at 37° C., 5% CO2 and 98% humidity. For the experiments, cells were harvested from subconfluent cultures using trypsin and resuspended in fresh medium before plating.
(§6) Cells are seeded in 96 well microtiter plates, at 5×10^3 cells per well in aliquots of 195 μL medium, and they are allowed to attach to the plate surface by growing in drug free medium for 18 hours. Afterward, samples are added in aliquots of 5 μL in a ranging from 10 to 10^−8 μg/mL, dissolved in DMSO/EtOH/PBS (0.5:0.5:99). After 48 hours exposure, the antitumor effect are measured by the SRB methodology: cells are fixed by adding 50 μL of cold 50% (wt/vol) trichloroacetic acid (TCA) and incubated for 60 minutes at 4° C. Plates are washed with deionizer water and dried. One hundred μl of SRB solution (0.4% wt/vol in 1% acetic acid) is added to each microliter well and incubated for 10 minutes at room temperature. Unbound SRB is removed by washing with 1% acetic acid. Plates are air dried and bound stain is solubilized with Tris buffer. Optical densities are read on a automated spectrophotometric plate reader at a single wavelength of 490 nm.
(§7) The values for mean +/−SD of data from triplicate wells are calculated. Some parameters for cellular responses can be calculated: GI=growth inhibition, TGI=total growth inhibition (cytostatic effect) and LC=cell killing (cytotoxic effect).

IGROV = test: Inhibition of cell growth by colorimetric SRB assay, IGROV; conditions: Homo sapiens, 48 hours exposure; for CC50: cell killing, read-out: LC50 (the source's name); for IC (total growth inhibition): read-out: TGI
Text: as §1, §2, §3, §4, §5, §6, §7

HeLa-APL = test: Inhibition of cell growth by colorimetric SRB assay, HELA-APL; conditions: Homo sapiens; for CC50: cell killing, read-out: LC50 (the source's name); for IC (total growth inhibition): read-out: TGI
Text: as §1, §2, §3, §4, §5, §6, §7

LoVo-Dox = test: Inhibition of cell growth by colorimetric SRB assay, LOVO-DOX; conditions: Homo sapiens, LOVO-DOX, 48 hours exposure; for LC50 (concentration for 50% cell killing): read-out: LC50; for IC (total growth inhibition): read-out: TGI
Text: as §1, §2, §3, §4, §5, §6, §7

HT-29 = test: Inhibition of cell growth by colorimetric SRB assay, HT-29; conditions: Homo sapiens, HT-29, 48 hours exposure; for CC50: cell killing, read-out: LC50 (the source's name); for IC (total growth inhibition): read-out: TGI
Text: as §1, §2, §3, §4, §5, §6, §7

SK-MEL-28 = test: Inhibition of cell growth by colorimetric SRB assay, MEL-28; conditions: Homo sapiens, SK-MEL-28, MEL-28, 48 hours exposure; for CC50: cell killing, read-out: LC50 (the source's name); for IC (total growth inhibition): read-out: TGI
Text: as §1, §2, §3, §4, §5, §6, §7

SK-BR-3 = test: Inhibition of cell growth by colorimetric SRB assay, SK-BR-3; conditions: SK-BR-3, 48 hours exposure; for GI50 / CC50: Homo sapiens; for CC50: cell killing, read-out: LC50 (the source's name); for TGI: total growth inhibition
Text: as §1, §2, §3, §4, §5, §6, §7

A-549 = test: Inhibition of cell growth by colorimetric SRB assay, A-549; conditions: Homo sapiens, A549, A-549, 48 hours exposure; for CC50: cell killing, read-out: LC50 (the source's name); for IC (total growth inhibition): read-out: TGI
Text: as §1, §2, §3, §4, §5, §6, §7

PANC-1 = test: Inhibition of cell growth by colorimetric SRB assay, PANC-1; conditions: Homo sapiens, PANC-1, 48 hours exposure; for CC50: cell killing, read-out: LC50 (the source's name); for IC (total growth inhibition): read-out: TGI
Text: as §1, §2, §3, §4, §5, §6, §7

DU-145 = test: Inhibition of cell growth by colorimetric SRB assay, DU-145; conditions: Homo sapiens, DU-145, 48 hours exposure; for CC50: cell killing, read-out: LC50 (the source's name); for IC (total growth inhibition): read-out: TGI
Text: as §1, §2, §3, §4, §5, §6, §7

IGROV-ET = test: Inhibition of cell growth by colorimetric SRB assay, IGROV-ET; conditions: Homo sapiens, IGROV-ET, 48 hours exposure; for CC50: cell killing, read-out: LC50 (the source's name); for IC (total growth inhibition): read-out: TGI
Text: as §1, §2, §3, §4, §5, §6, §7

LoVo = test: Inhibition of cell growth by colorimetric SRB assay, LOVO; conditions: Homo sapiens, LOVO, 48 hours exposure; for LC50: cell killing, read-out: LC50; for IC (total growth inhibition): read-out: TGI
Text: as §1, §2, §3, §4, §5, §6, §7

LNCaP = test: Inhibition of cell growth by colorimetric SRB assay, LN-caP; conditions: Homo sapiens, LN-caP, 48 hours exposure
Text: as §1, §2, §3, §4, §5, §6, §7

K-562 = test: Inhibition of cell growth by colorimetric SRB assay, K-562; conditions: Homo sapiens, K562, K-562, 48 hours exposure
Text: as §1, §2, §3, §4, §5, §6, §7

[1] = cell killing, read-out: LC50 (the source's name)
[2] = total growth inhibition, read-out: TGI

SMILES	GI50 (HeLa)	CC50 (HeLa)	IC (total growth inhibition) (HeLa)	CC50 (HeLa-APL; HELA-APL, 48 hours exposure)	GI50 (LoVo-Dox)	LC50 (concentration for 50% cell killing) (LoVo-Dox)	IC (total growth inhibition) (LoVo-Dox)	GI50 (SK-MEL-28)	CC50 (SK-MEL-28)	IC (total growth inhibition) (SK-MEL-28)	GI50 (A-549)	CC50 (A-549)	IC (total growth inhibition) (A-549)	GI50 (PANC-1)	CC50 (PANC-1)	IC (total growth inhibition) (PANC-1)	GI50 (DU-145)	CC50 (DU-145)	IC (total growth inhibition) (DU-145)	GI50 (IGROV-ET)	also measured
C/C=C\[C@H](C)[C@H]1OC1(C)[C@@H](O)[C@@H](CO)C(=O)[C@@H](CO)[C@H](O)CC(=O)CC (stereo partly drawn) [3d + 4d]	26.8 µM	26.8 µM	26.8 µM	26.8 µM	26.8 µM	26.8 µM	26.8 µM	26.8 µM	26.8 µM	26.8 µM	26.8 µM	26.8 µM	26.8 µM	13.5 µM	26.8 µM	26.8 µM	26.8 µM	26.8 µM	26.8 µM	17.1 µM	GI50 (IGROV): 20.5 µM; CC50 (IGROV): 26.8 µM; IC (total growth inhibition) (IGROV): 26.8 µM; GI50 (HeLa-APL; HELA-APL, 48 hours exposure, read-out: GI50): 26.8 µM; IC (total growth inhibition) (HeLa-APL; HELA-APL, 48 hours exposure, total growth inhibition): 26.8 µM; GI50 (HT-29): 26.8 µM; CC50 (HT-29): 26.8 µM; IC (total growth inhibition) (HT-29): 26.8 µM; GI50 (SK-BR-3): 20.5 µM; CC50 (SK-BR-3): 26.8 µM; TGI (SK-BR-3): 2.68E−05 Molar; CC50 (IGROV-ET): 26.8 µM; IC (total growth inhibition) (IGROV-ET): 26.8 µM; GI50 (LoVo): 26.8 µM; LC50 (LoVo): 26.8 µM; IC (total growth inhibition) (LoVo): 26.8 µM
C/C=C\[C@H](C)[C@H]1OC1(C)[C@@H](O[Si](C)(C)C(C)(C)C)[C@@H](CO)C(=O)[C@@H](CO)[C@H](O)CC(=O)CC (stereo partly drawn) [31b + 31d]	20.5 µM	20.5 µM	20.5 µM	20.5 µM	20.5 µM	20.5 µM	20.5 µM	20.5 µM	20.5 µM	20.5 µM	20.5 µM	20.5 µM	20.5 µM	12.6 µM	20.5 µM	20.5 µM	20.5 µM	20.5 µM	20.5 µM	20.5 µM	GI50 (IGROV): 16.5 µM; CC50 (IGROV): 20.5 µM; IC (total growth inhibition) (IGROV): 20.5 µM; GI50 (HT-29): 20.5 µM; CC50 (HT-29): 20.5 µM; IC (total growth inhibition) (HT-29): 20.5 µM; GI50 (SK-BR-3): 20.2 µM; CC50 (SK-BR-3): 20.5 µM; TGI (SK-BR-3): 2.05E−05 Molar; CC50 (IGROV-ET): 20.5 µM; IC (total growth inhibition) (IGROV-ET): 20.5 µM; GI50 (LoVo): 20.5 µM; LC50 (LoVo): 20.5 µM; IC (total growth inhibition) (LoVo): 20.5 µM
C/C=C\[C@H](C)[C@H]1OC1(C)[C@@H](O[Si](C)(C)C(C)(C)C)[C@@H](CO[Si](C)(C)C(C)(C)C)C(=O)[C@@H](CO[Si](C)(C)C(C)(C)C)[C@H](CC(=O)CC)O[Si](C)(C)C(C)(C)C (stereo partly drawn) [Compound 30a]	12.1 µM	12.1 µM	12.1 µM	12.1 µM	12.1 µM	12.1 µM	12.1 µM	12.1 µM	12.1 µM	12.1 µM	12.1 µM	12.1 µM	12.1 µM	12.1 µM	12.1 µM	12.1 µM	12.1 µM	12.1 µM	12.1 µM	8.27 µM	GI50 (SK-BR-3): 8.56 µM; CC50 (SK-BR-3): 12.1 µM; TGI (SK-BR-3): 1.21E−05 Molar; CC50 (IGROV-ET): 12.1 µM; IC (total growth inhibition) (IGROV-ET): 12.1 µM; GI50 (LoVo): 6.37 µM; LC50 (LoVo): 12.1 µM; IC (total growth inhibition) (LoVo): 12.1 µM
C/C=C\[C@H](C)[C@H]1OC1(C)[C@@H](O[Si](C)(C)C(C)(C)C)[C@@H](CO[Si](C)(C)C(C)(C)C)C(=O)[C@@H](CO[Si](C)(C)C(C)(C)C)[C@@H](CC(=O)CC)O[Si](C)(C)C(C)(C)C (stereo partly drawn) [Compound 30b]	12.1 µM	12.1 µM	12.1 µM	12.1 µM	12.1 µM	12.1 µM	12.1 µM	12.1 µM	12.1 µM	12.1 µM	12.1 µM	12.1 µM	12.1 µM	12.1 µM	12.1 µM	12.1 µM	12.1 µM	12.1 µM	12.1 µM	8.27 µM	GI50 (SK-BR-3): 12.1 µM; CC50 (SK-BR-3): 12.1 µM; TGI (SK-BR-3): 1.21E−05 Molar; CC50 (IGROV-ET): 12.1 µM; IC (total growth inhibition) (IGROV-ET): 12.1 µM; GI50 (LoVo): 6.88 µM; LC50 (LoVo): 12.1 µM; IC (total growth inhibition) (LoVo): 12.1 µM
C/C=C\[C@H](C)[C@H]1OC1(C)[C@@H](O[Si](C)(C)C(C)(C)C)[C@@H](COC(C)=O)C(=O)[C@H](CO)[C@H](O)CC(=O)CC (stereo partly drawn) [Compound 43]	4.37 µM	16.4 µM	8.47 µM	18.9 µM	3.31 µM	15.7 µM	7.21 µM	3.9 µM	13.4 µM	7.24 µM	4.44 µM	16.2 µM	8.49 µM	3.73 µM	13.2 µM	7.02 µM	4.99 µM	18.7 µM	9.66 µM	4.52 µM	GI50 (IGROV): 4.94 µM; CC50 (IGROV): 18.9 µM; IC (total growth inhibition) (IGROV): 9.99 µM; GI50 (HeLa-APL; 48 h): 4.27 µM; IC (total growth inhibition) (HeLa-APL; 48 h): 9.34 µM; GI50 (LNCaP): 3.78 µM; CC50 (LNCaP; [1]): 15.4 µM; IC (total growth inhibition) (LNCaP; [2]): 7.62 µM; GI50 (HT-29): 4.24 µM; CC50 (HT-29): 16.2 µM; IC (total growth inhibition) (HT-29): 8.28 µM; GI50 (K-562): 3.59 µM; CC50 (K-562; [1]): 16.5 µM; IC (total growth inhibition) (K-562; [2]): 7.72 µM; CC50 (IGROV-ET): 17.8 µM; IC (total growth inhibition) (IGROV-ET): 8.96 µM; GI50 (LoVo): 4.03 µM; LC50 (LoVo): 18.9 µM; IC (total growth inhibition) (LoVo): 9.06 µM
